The results in this text go back to ChEMBL document CHEMBL1909046, “DrugMatrix in vitro pharmacology data”.

The target of one test is Melanocortin receptor 3 (Homo sapiens, UniProt P41968). Format: cell membranes, HEK293, Membrane. Conditions: hek293. Further: in other assays of this panel Not Active means under 50% inhibition at 10 µM.
The target of test [1] is T1, Muscarinic acetylcholine receptor M2 (Homo sapiens, UniProt P08172). Further: in other assays of this panel Not Active means under 50% inhibition at 10 µM.
T1 sequence (P08172 whole entry): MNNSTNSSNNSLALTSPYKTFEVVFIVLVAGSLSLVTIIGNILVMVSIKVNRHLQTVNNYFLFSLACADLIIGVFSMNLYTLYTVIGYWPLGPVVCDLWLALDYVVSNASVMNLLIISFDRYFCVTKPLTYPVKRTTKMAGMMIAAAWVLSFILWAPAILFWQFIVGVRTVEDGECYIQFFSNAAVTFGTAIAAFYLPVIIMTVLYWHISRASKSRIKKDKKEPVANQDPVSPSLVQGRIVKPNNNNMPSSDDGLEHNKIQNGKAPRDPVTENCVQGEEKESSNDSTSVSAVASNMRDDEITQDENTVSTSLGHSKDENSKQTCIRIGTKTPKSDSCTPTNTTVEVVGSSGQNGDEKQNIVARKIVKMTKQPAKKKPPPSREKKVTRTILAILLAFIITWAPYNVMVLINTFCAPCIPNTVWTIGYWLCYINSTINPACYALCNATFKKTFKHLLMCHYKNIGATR
Format: cell membranes, CHO-K1, Membrane. The conditions noted are these: cho-k1.

Test [2] concerns the target T2, Muscarinic acetylcholine receptor M5 (Homo sapiens, UniProt P08912). Further: in other assays of this panel Not Active means under 50% inhibition at 10 µM.
T2 sequence (P08912 whole entry): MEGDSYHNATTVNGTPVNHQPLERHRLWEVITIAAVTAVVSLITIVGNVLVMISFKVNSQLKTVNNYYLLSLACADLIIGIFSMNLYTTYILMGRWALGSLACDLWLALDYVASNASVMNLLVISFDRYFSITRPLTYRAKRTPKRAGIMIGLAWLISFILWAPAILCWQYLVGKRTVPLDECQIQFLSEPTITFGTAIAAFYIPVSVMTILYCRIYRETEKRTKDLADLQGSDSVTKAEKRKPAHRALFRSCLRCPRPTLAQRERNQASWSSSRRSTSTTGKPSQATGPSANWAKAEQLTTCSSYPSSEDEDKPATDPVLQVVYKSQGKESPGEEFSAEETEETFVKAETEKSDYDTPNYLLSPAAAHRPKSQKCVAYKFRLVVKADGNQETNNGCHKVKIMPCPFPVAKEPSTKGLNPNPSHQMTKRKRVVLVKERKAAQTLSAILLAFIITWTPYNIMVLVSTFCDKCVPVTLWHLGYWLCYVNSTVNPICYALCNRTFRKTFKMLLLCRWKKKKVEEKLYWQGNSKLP
Format: cell membranes, CHO-K1, Membrane. Conditions: cho-k1.

A short description of test [3]: DRUGMATRIX: Nicotinic Acetylcholine radioligand binding (ligand: [125I] Epibatidine). Format: cell membranes, Membrane. Conditions: imr-32; Not Active = under 50% inhibition at 10 µM.
Test [4] is described as follows: DRUGMATRIX: Phosphodiesterase PDE4 enzyme inhibition (substrate: [3H]cAMP + cAMP). The conditions noted are these: u-937, Not Active = under 50% inhibition at 10 µM.
A short description of test [5]: DRUGMATRIX: Purinergic P2X radioligand binding (ligand: [3H] alpha, beta-Methylene-ATP). The test is classed as cell membranes, Oryctolagus cuniculus, New Zealand albino, Urinary bladder, Membrane. Conditions: Not Active = under 50% inhibition at 10 µM.

Melanocortin receptor 3, sequence (P41968 whole entry): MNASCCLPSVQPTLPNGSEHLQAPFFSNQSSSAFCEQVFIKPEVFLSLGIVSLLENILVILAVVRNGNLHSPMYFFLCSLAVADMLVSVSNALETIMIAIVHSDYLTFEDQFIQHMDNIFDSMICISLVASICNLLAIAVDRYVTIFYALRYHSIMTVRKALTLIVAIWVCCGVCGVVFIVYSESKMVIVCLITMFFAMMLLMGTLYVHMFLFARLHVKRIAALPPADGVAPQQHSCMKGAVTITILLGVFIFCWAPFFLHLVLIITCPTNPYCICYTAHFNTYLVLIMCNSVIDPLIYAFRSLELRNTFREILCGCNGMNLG

On to `c1ccc(Cn2ccnc2)cc1`, for which the IC50 result (on Melanocortin receptor 3; in test [1]; in test [2]; in test [3]; in test [4]; in test [5]) was “Not Active” in each case. Moreover, the Ki entry in test [3], in test [4] and in test [5] was “Not Active” throughout.

Turning to `C[N+](C)(C)CCOP(=O)([O-])OC[C@H](O)CO`, the IC50 entry (against Melanocortin receptor 3; in test [1]; in test [2]; in test [3]; in test [4]; in test [5]) was “Not Active” each time. Moreover, the Ki result in test [3], in test [4] and in test [5] was “Not Active” in each case.

On to `NC(=O)CN1CCCC1=O`, for which the concentration for half-maximal inhibition (IC50) result (at Melanocortin receptor 3; in test [1]; in test [2]; in test [3]; in test [4]; in test [5]) was “Not Active” each time. Moreover, the Ki entry in test [3], in test [4] and in test [5] was “Not Active” each time.

For the compound `OC[C@H]1OC2C3[C@@H](CO)OC(O[C@H]4[C@H](O)[C@@H](O)[C@@H](O[C@H]5[C@H](O)[C@@H](O)[C@@H](O[C@H]6[C@H](O)[C@@H](O)[C@@H](O[C@H]7[C@H](O)[C@@H](O)[C@@H](O[C@H]8[C@H](O)[C@@H](O)[C@@H](O[C@H]9[C@H](O)[C@@H](O)C(OC1[C@H](O)[C@H]2O)O[C@@H]9CO)O[C@@H]8CO)O[C@@H]7CO)O[C@@H]6CO)O[C@@H]5CO)O[C@@H]4CO)[C@H](O)[C@H]3O`, the IC50 result (against Melanocortin receptor 3; in test [1]; in test [2]; in test [3]; in test [4]; in test [5]) was “Not Active” each time. The Ki result in test [3], in test [4] and in test [5] was “Not Active” throughout.

`CN(CCOc1ccc(C[C@H](Nc2ccccc2C(=O)c2ccccc2)C(=O)O)cc1)c1ccccn1`: the IC50 (as a rule, the midpoint of a concentration-inhibition curve) against Melanocortin receptor 3 was “Not Active”; in test [1], “Not Active”; in test [2], “Not Active”; in test [3], “Not Active”; in test [4] (read-out: IC50), 7.45 µM; in test [5], “Not Active”. The Ki result in test [3] and in test [5] was “Not Active” in each case.

For the compound `O=c1[nH]c2ccccc2c2ccccc12`, the IC50 result (against Melanocortin receptor 3; in test [1]; in test [2]; in test [3]; in test [4]; in test [5]) was “Not Active” in each case. Moreover, the Ki entry in test [3], in test [4] and in test [5] was “Not Active” in each case.

In the case of `CO[C@H]1O[C@@H]2O[C@@]3(C)CC[C@H]4[C@H](C)CC[C@@H]([C@H]1C)[C@@]24OO3`, the IC50 result (against Melanocortin receptor 3; in test [1]; in test [2]; in test [3]; in test [4]; in test [5]) was “Not Active” each time. Besides, the Ki result in test [3], in test [4] and in test [5] was “Not Active” throughout.

For `Nc1ccc(Cc2ccc(N)cc2)cc1`, the IC50 entry (on Melanocortin receptor 3; in test [1]; in test [2]; in test [3]; in test [4]; in test [5]) was “Not Active” in each case. Besides, the Ki entry in test [3], in test [4] and in test [5] was “Not Active” throughout.

Turning to `C=C(Cl)Cl` [1,1-DICHLOROETHENE], the IC50 entry (at Melanocortin receptor 3; in test [1]; in test [2]; in test [3]; in test [4]; in test [5]) was “Not Active” each time. Besides, the Ki result in test [3], in test [4] and in test [5] was “Not Active” each time.

For `CC(=O)Nc1ccc2c(c1)Cc1ccccc1-2` [2-ACETYLAMINOFLUORENE], the IC50 entry (against Melanocortin receptor 3; in test [1]; in test [2]; in test [3]; in test [4]; in test [5]) was “Not Active” throughout. Besides, the Ki entry in test [3], in test [4] and in test [5] was “Not Active” each time.

Regarding `O=C(Nc1ccc(Cl)c(Cl)c1)c1cc(Cl)cc(Cl)c1O` [3,3',4',5-TETRACHLOROSALICYLANILIDE], the IC50 result (at Melanocortin receptor 3; in test [1]; in test [2]; in test [3]; in test [4]; in test [5]) was “Not Active” in each case. The Ki entry in test [3], in test [4] and in test [5] was “Not Active” throughout.

`O=C(O)COC(=O)Cc1ccccc1Nc1c(Cl)cccc1Cl` [ACECLOFENAC]: the IC50 entry (on Melanocortin receptor 3; in test [1]; in test [2]; in test [3]; in test [4]; in test [5]) was “Not Active” in each case. In addition, the Ki entry in test [3], in test [4] and in test [5] was “Not Active” in each case.

For `CCN1C[C@]2(COC)[C@H](O)C[C@H](OC)[C@@]34[C@@H]5C[C@@]6(O)[C@H](OC(=O)c7ccccc7)[C@@H]5[C@@](OC(C)=O)([C@@H]([C@H](OC)[C@H]23)[C@@H]14)[C@@H](O)[C@@H]6OC` [ACONITINE], the IC50 result (at Melanocortin receptor 3; in test [1]; in test [2]; in test [3]; in test [4]; in test [5]) was “Not Active” throughout. The Ki result in test [3], in test [4] and in test [5] was “Not Active” in each case.

For the compound `CCO` [ALCOHOL], the IC50 entry (against Melanocortin receptor 3; in test [1]; in test [2]; in test [3]; in test [4]; in test [5]) was “Not Active” in each case. Also, the Ki entry in test [3], in test [4] and in test [5] was “Not Active” each time.

As for `OC[C@H]1O[C@@H]2O[C@H]3[C@H](O)[C@@H](O)[C@@H](O[C@H]4[C@H](O)[C@@H](O)[C@@H](O[C@H]5[C@H](O)[C@@H](O)[C@@H](O[C@H]6[C@H](O)[C@@H](O)[C@@H](O[C@H]7[C@H](O)[C@@H](O)[C@@H](O[C@H]1[C@H](O)[C@H]2O)O[C@@H]7CO)O[C@@H]6CO)O[C@@H]5CO)O[C@@H]4CO)O[C@@H]3CO` [ALFADEX], the IC50 entry (on Melanocortin receptor 3; in test [1]; in test [2]; in test [3]; in test [4]; in test [5]) was “Not Active” in each case. In addition, the Ki entry in test [3], in test [4] and in test [5] was “Not Active” each time.

Regarding `Oc1ncnc2[nH]ncc12` [ALLOPURINOL], the IC50 result (on Melanocortin receptor 3; in test [1]; in test [2]; in test [3]; in test [4]; in test [5]) was “Not Active” in each case. In addition, the Ki entry in test [3], in test [4] and in test [5] was “Not Active” throughout.
